# Biological target: human recombinant renin (Homo sapiens (Human), UniProt P00797)
# Experiment: human renin activity inhibition (SensoLyte 520 Renin Assay Kit Fluorimetric)
# Type: biochemical
# Settings: 30 min preincubation at 37° C., fluorescence at 530 nm after 15 min at 37° C., read-out: IC50 (nM), inhibitory effect on human renin activity
# Protocol: The exemplary compounds of the disclosure were tested for their inhibitory effects on human renin activity, using a commercially available renin assay kit (SensoLyte® 520 Renin Assay Kit Fluorimetric), following the manufacture's manual.
# Briefly, human recombinant renin (from the kit) was incubated with the compound of the disclosure or buffer for 30 min at 37° C. before substrate addition. Fluorescence intensity was measured at 530 nm after an incubation of 15 min at 37° C. Data was analyzed by Prism and fitted into a sigmodal curve for IC50 calculation.
# human recombinant renin, sequence (P00797 67-406): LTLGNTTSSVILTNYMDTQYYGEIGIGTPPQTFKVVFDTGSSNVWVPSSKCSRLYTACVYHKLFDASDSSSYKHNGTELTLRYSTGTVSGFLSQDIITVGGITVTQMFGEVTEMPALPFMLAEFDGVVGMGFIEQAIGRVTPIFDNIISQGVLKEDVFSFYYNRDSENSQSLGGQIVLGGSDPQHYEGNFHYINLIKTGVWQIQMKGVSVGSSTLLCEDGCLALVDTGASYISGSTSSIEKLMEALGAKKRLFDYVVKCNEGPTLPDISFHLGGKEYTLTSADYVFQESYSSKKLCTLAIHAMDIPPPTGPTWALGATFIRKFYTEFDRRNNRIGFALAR
row,SMILES,IC50
1,"CO[C@H]1C[C@H](Nc2cc(C3CC3)cnc2C(=O)N(CC(C)C)[C@@H]2CNCC(c3nnc(C4COC4)o3)C2)C1 (stereo in doubt) [Compound 34, (3S)—{N-(2-methylpropyl), N-{5-cyclopropyl-3-[3-(trans-methoxy)cyclobutyl]amino}pyridine-2-carbonyl}amino-(5R)-[5-(oxetan-3-yl)-1,3,4-oxadiazol-2-yl]-piperidine]",< 10 nM
2,"Cc1nnc(C2CNC[C@@H](N(CC(C)C)C(=O)c3ncc(C4CC4)cc3NC3COC3)C2)o1 (stereo in doubt) [Compound 37, (3S)—{N-(2-methylpropyl), N-[5-cyclopropyl-3-(oxetan-3-yl)amino]pyridine-2-carbonyl}amino-(5R)-(5-methyl-1,3,4-oxadiazol-2-yl)-piperidine]",< 20 nM
3,"Cc1noc(C2CNC[C@@H](N(CC(C)C)C(=O)c3ncc(C4CC4)cc3NC3COC3)C2)n1 (stereo in doubt) [Compound 38, (3S)—{N-(2-methylpropyl), N-[5-cyclopropyl-3-(oxetan-3-yl)amino]pyridine-2-carbonyl}amino-(5R)-(3-methyl-1,2,4-oxadiazol-5-yl)-piperidine]",< 50 nM
4,"CO[C@H]1C[C@H](Nc2cc(C3CC3)cnc2C(=O)N(CC2CC2)[C@@H]2CNCC(c3nnco3)C2)C1 (stereo in doubt) [Compound 44, (3S)—{N-cyclopropylmethyl, N-{5-cyclopropyl-3-[3-(trans-methoxy)cyclobutyl]amino}pyridine-2-carbonyl}amino-(5R)-(1,3,4-oxadiazol-2-yl)-piperidine]",< 10 nM
5,"CO[C@H]1C[C@H](Nc2cc(C3CC3)cnc2C(=O)N(CC(C)C)[C@@H]2CNC[C@H](C(=O)N3CC(F)C3)C2)C1 [Compound 10, (3S)—{N-(2-methylpropyl), N-{5-cyclopropyl-3-[3-(trans-methoxy)cyclobutyl]amino}pyridine-2-carbonyl}amino-(5R)-(3-fluoroazetidine-N-carbonyl)-piperidine]",1.8 nM
6,"CO[C@H]1C[C@H](Nc2cc(C3CC3)cnc2C(=O)N(CC(C)C)C2CNCC(C(=O)N3CCC(F)(F)C3)C2)C1 (stereo partly drawn) [Compound 11, (3S)—{N-(2-methylpropyl), N-{5-cyclopropyl-3-[3-(trans-methoxy)cyclobutyl]amino}pyridine-2-carbonyl}amino-(5R)-(3,3-difluoropyrrolidine-N-carbonyl)-piperidine]",1.2 nM
7,"CO[C@H]1C[C@H](Nc2cc(C3CC3)cnc2C(=O)N(CC(C)C)C2CNCC(C(=O)N3CCC(F)(F)CC3)C2)C1 (stereo partly drawn) [Compound 12, (3S)—{N-(2-methylpropyl), N-{5-cyclopropyl-3-[3-(trans-methoxy)cyclobutyl]amino}pyridine-2-carbonyl}amino-(5R)-(4,4-difluoropiperidine-N-carbonyl)-piperidine]",1.6 nM
8,"CO[C@H]1C[C@H](Nc2cc(C3CC3)cnc2C(=O)N(CC(C)C)C2CNCC(C(=O)N3CCC(OC(F)(F)F)CC3)C2)C1 (stereo partly drawn) [Compound 13, (3S)—{N-(2-methylpropyl), N-{5-cyclopropyl-3-[3-(trans-methoxy)cyclobutyl]amino}pyridine-2-carbonyl}amino-(5R)-(4-trifluoromethoxypiperidine-N-carbonyl)-piperidine]",3.8 nM
9,"CO[C@H]1C[C@H](Nc2cc(C3CC3)cnc2C(=O)N(CC(C)C)C2CNCC(C(=O)N3CCOC[C@H]3C)C2)C1 (stereo partly drawn) [Compound 14, (3S)—{N-(2-methylpropyl), N-{5-cyclopropyl-3-[3-(trans-methoxy)cyclobutyl]amino}pyridine-2-carbonyl}amino-(5R)-[(3R)-methylmorpholine-N-carbonyl]-piperidine]",1.2 nM
10,"CO[C@H]1C[C@H](Nc2cc(C3CC3)cnc2C(=O)N(CC(C)C)C2CNCC(C(=O)N3CCOC[C@@H]3C)C2)C1 (stereo partly drawn) [Compound 15, (3S)—{N-(2-methylpropyl), N-{5-cyclopropyl-3-[3-(trans-methoxy)cyclobutyl]amino}pyridine-2-carbonyl}amino-(5R)-[(3S)-methylmorpholine-N-carbonyl]-piperidine]",1 nM
